From patent publication US11899021B2, “Luciferase-based thermal shift assays” (Promega Corporation, priority 2015, dated 2024)

How the values were obtained:
[1] = Optical property of dyes in DMSO (Table 1); type: physicochemical; conditions: for Optical Property (in DMSO) Excitation: unit assumed
CDK2-Nluc = biological target: T1, CDK2-Nluc (Homo sapiens, UniProt P24941); test: Direct-luciferase-detection thermal shift assay, compound selectivity, CDK2-Nluc (Example 6); type: binding; conditions: HeLa cells then digitonin, 10 uL of 1 mM stock per well
T1 construct: NanoLuc luciferase (Nluc); expressed in transfected cells; host or cells: HeLa
Procedure: (§1) HeLa cells were transfected separately with CDK2-Nluc or Nluc-ABL1 DNA at a 1:100 DNA ratio and incubated overnight. […] The cells were seeded into 96-well tall-chimney PCR plate (Fisherbrand) at a density of 2×10^4 cells/well in a 90 uL/well volume and treated with 10 uL of 10% DMSO (Sigma) or 10 uL of a 1 mM stock solution of test compound in 10% DMSO. […] The plates were then incubated for ½ hour in a humidified, 37° C./5% CO2 incubator prior to addition of 10 uL/well of a 0.5 mg/ml solution of digitonin (Sigma) and 10% DMSO (Sigma). The plates were placed into a thermal cycler (MW Research) where the samples were heated individually at different temperatures spanning a gradient of 42-66° C. across the plate for 3 minutes followed by cooling at 22° C. for 3 minutes. Furimazine Live Cell Substrate (Promega) was added to a final concentration of 1× in 20 uL/well volume. 100 uL/well was then transferred to a tissue culture plate (Corning), and luminescence was measured on a BMG Clariostar luminometer equipped with a 450 nm BP filter. Data was normalized by relating RLU signals to the RLU of the lowest temperature for the respective sample. Data was then fitted to obtain apparent melting temperature where the protein was precipitating (Tagg values) using the Boltzmann Sigmoidal equation with Graphpad Prism software.

HDAC1-Nluc = biological target: T2, HDAC1-Nluc (Homo sapiens, UniProt Q13547); test: Direct-luciferase-detection thermal shift assay, HDAC1-Nluc (Example 7); type: binding; conditions: HeLa cells then digitonin, 10 uL of 1 mM stock per well
T2 construct: NanoLuc luciferase (Nluc); expressed in transfected cells; host or cells: HeLa
Procedure: The cells were seeded into 96-well tall-chimney PCR plate (Fisherbrand) at a density of 2×10^4 cells/well in a 90 uL/well volume and treated with 10 uL of 10% DMSO (Sigma) or 10 uL of a 1 mM stock solution of test compound in 10% DMSO. […] The plates were placed into a thermal cycler (MW Research) where the samples were heated individually at different temperatures spanning a gradient of 42-66° C. across the plate for 3 minutes followed by cooling at 22° C. for 3 minutes. 100 uL/well was then transferred to a tissue culture plate (Corning), and luminescence was measured on a BMG Clariostar luminometer equipped with a 450 nm BP filter. Data was normalized by relating RLU signals to the RLU of the lowest temperature for the respective sample.

Nluc-ABL1 = biological target: T3, Nluc-ABL1 (Homo sapiens, UniProt P00519); test: Direct-luciferase-detection thermal shift assay, compound selectivity, Nluc-ABL1 (Example 6); type: binding; conditions: Nluc-ABL1, HeLa cells then digitonin, 10 uL of 1 mM stock per well
T3 construct: NanoLuc luciferase (Nluc); expressed in transfected cells; host or cells: HeLa
Procedure: as §1

T3 sequence (P00519 whole entry): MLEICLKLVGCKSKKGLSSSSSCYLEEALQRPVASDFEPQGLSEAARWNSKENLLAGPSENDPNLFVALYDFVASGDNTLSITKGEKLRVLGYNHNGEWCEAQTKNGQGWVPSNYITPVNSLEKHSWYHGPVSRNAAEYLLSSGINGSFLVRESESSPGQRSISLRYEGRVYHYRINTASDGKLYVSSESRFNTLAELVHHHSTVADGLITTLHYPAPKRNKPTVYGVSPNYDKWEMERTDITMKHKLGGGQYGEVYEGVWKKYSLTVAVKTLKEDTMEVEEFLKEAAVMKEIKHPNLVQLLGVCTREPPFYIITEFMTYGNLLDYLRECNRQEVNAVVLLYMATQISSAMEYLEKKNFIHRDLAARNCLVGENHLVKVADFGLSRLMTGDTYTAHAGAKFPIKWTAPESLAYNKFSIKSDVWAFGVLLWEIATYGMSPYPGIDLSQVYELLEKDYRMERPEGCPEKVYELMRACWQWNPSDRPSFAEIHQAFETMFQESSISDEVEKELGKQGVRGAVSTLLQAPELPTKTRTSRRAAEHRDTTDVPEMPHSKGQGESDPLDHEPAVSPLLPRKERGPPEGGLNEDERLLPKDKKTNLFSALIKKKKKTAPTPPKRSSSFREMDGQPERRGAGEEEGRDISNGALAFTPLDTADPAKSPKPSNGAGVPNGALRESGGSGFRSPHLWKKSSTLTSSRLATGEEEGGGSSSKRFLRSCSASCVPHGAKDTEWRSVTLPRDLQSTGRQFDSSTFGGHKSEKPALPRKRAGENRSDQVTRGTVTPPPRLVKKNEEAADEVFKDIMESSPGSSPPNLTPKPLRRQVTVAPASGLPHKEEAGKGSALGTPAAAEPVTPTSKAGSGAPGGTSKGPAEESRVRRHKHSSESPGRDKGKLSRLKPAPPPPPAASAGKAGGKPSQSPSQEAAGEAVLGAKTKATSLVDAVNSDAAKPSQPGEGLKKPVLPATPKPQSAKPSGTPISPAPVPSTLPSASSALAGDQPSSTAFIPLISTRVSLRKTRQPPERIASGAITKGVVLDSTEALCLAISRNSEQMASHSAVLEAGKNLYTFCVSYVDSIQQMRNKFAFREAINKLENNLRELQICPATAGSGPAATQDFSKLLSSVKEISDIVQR
T2 sequence (Q13547 whole entry): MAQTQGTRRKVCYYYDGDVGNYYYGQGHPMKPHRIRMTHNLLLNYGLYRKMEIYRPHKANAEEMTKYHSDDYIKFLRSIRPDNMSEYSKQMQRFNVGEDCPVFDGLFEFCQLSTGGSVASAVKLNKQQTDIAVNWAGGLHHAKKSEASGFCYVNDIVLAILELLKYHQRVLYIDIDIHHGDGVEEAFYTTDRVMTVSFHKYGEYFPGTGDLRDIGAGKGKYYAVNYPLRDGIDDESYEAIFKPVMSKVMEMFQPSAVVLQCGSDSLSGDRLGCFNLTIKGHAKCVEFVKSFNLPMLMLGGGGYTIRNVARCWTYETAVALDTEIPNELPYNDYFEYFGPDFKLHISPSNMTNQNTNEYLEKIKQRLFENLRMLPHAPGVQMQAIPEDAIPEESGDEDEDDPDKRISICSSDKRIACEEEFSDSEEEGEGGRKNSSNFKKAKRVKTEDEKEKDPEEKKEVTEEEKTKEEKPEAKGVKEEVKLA

Optical Property (in DMSO) Emission [1] | Optical Property (in DMSO) Excitation [1] [nm] | Structure (SMILES) | shift in apparent Tagg compared to DMSO controls (CDK2-Nluc) | shift in melting temperature (apparent Tagg) compared to the controls (HDAC1-Nluc) | shift in apparent Tagg compared to DMSO controls (Nluc-ABL1)
not fluorescent |  | CCCCCCN(CCCCCC)c1ccc(/C=C/c2ccc3c(ccc[n+]3CCCS(=O)(=O)[O-])c2)cc1 [CS0072] |  |  | 
468 nm | 620 | CCCCCCN(CCCCCC)c1ccc(/C=C/c2ccncc2)cc1 [CS0117, (E)-N,N-Dihexyl-4-(2-(pyridin-4-yl)vinyl)aniline] |  |  | 
480 nm | 618 | CCCCCCN(CCCCCC)c1ccc(/C=C/c2cc[n+](C34CC5CC(CC(C5)C3)C4)cc2)cc1.[Br-] [CS0096] |  |  | 
480 nm | 620 | CCCCCCN(CCCCCC)c1ccc(/C=C/c2cc[n+](CCCC(=O)N(CCCS(=O)(=O)[O-])CCCS(=O)(=O)O)cc2)cc1 [CS0073, (E)-3-(4-(4-(4-(Dihexylamino)styryl)pyridin-1-ium-1-yl)-N-(3-sulfopropyl)butanamido)propane-1-sulfonate] |  |  | 
400 nm | 550 | C[n+]1c(/C=C/c2ccc3ccccc3c2)ccc2ccccc21.[I-] [CS0087] |  |  | 
532 nm | 640 | CCCCCCN(CCCCCC)c1ccc(/C=C/c2ccc3ccccc3[n+]2C)cc1.[I-] [CS0085] |  |  | 
516 nm | 702 | CCCCCCN(CCCCCC)c1ccc(/C=C/C=C/c2cc[n+](CCC[N+](C)(C)C)cc2)cc1 [CS0155] |  |  | 
480 nm | 624 | CCCCCCN(CCCCCC)c1ccc(/C=C/c2cc[n+](CCCC(=O)OCC)cc2)cc1.[Br-] [CS0101, (E)-4-(4-(Dihexylamino)styryl)-1-(4-ethoxy-4-oxobutyl)pyridin-1-ium bromide] |  |  | 
516 nm | 702 | CCCCCCN(CCCCCC)c1ccc(/C=C/C=C/c2cc[n+](CCCC(=O)NCCOCCOCCOCCC(=O)OC(C)(C)C)cc2)cc1 [CS0147] |  |  | 

Continued, compound first:

Structure (SMILES) | Optical Property (in DMSO) Emission [1] | Optical Property (in DMSO) Excitation [1] [nm] | shift in apparent Tagg compared to DMSO controls (CDK2-Nluc) | shift in melting temperature (apparent Tagg) compared to the controls (HDAC1-Nluc) | shift in apparent Tagg compared to DMSO controls (Nluc-ABL1)
CCCCCCN(CCCCCC)c1ccc(/C=C/C2=[N+](C)c3ccccc3C2(C)C)cc1.[I-] [CS0067] | 550 nm | 604 |  |  | 
CCCCCCN(CCCCCC)c1ccc(/C=C/c2cc[n+](CCCS(=O)(=O)[O-])cc2)c2ccccc12 [CS0038] | 462 nm | 654 |  |  | 
Cc1cn(-c2cc(NC(=O)c3ccc(C)c(Nc4nccc(-c5cccnc5)n4)c3)cc(C(F)(F)F)c2)cn1 [Nilotinib] |  |  | did not result in a significant shift in apparent Tagg |  | 
CCCCCCN(CCCCCC)c1ccc(/C=C/c2cc[n+](CCCC(=O)O)cc2)cc1.[Br-] [CS0036, (E)-1-(3-Carboxypropyl)-4-(4-(dihexylamino)styryl)pyridin-1-ium chloride] | 480 nm | 624 |  |  | 
CCCCCCN(CCCCCC)c1ccc(/C=C/c2cc[n+](CCCC(=O)NCCCS(=O)(=O)[O-])cc2)cc1 [CS0043] | 468 nm | 620 |  |  | 
CCCCCCN(CCCCCC)c1ccc(/C=C/c2cc[n+](CC)cc2)cc1.[OH-] [CS0112] | 480 nm | 620 |  |  | 
Nc1ccccc1NC(=O)c1ccc(CNc2nccc(-c3cccnc3)n2)cc1 [Mocetinostat] |  |  |  | significant shift in melting temperature (apparent Tagg) | 
CCCCCCN(CCCCCC)c1ccc(/C=C/c2cc[n+](CCCC(=O)NCCOCCOCCOCCC(=O)NCCCS(=O)(=O)[O-])cc2)cc1 [CS0048, (E)-21-(4-(4-(Dihexylamino)styryl)pyridin-1-ium-1-yl)-5,18-dioxo-8,11,14-trioxa-4,17-diazahenicos-ane-1-sulfonate] | 478 nm | 620 |  |  | 
CCCCCCN(CCCCCC)c1ccc(/C=C/c2cc[n+](CCCS(=O)(=O)[O-])c3ccccc23)cc1 [CS0028] | 560 nm | 680 |  |  | 
CCCCCCN(CCCCCC)c1ccc(/C=C/C=C/c2cc[n+](CCCS(=O)(=O)[O-])cc2)cc1 [CS0024] | 516 nm | 702 |  |  | 
CCCCCCN(CCCCCC)c1ccc(/C=C/c2cc[n+](CCCC(=O)NCCOCCOCCOCCC(=O)O)cc2)cc1.[Br-] [CS0045, (E)-1-(1-Carboxy-13-oxo-3,6,9-trioxa-12-azahexadecan-16-yl)-4-(4-(dihexylamino)styryl)pyridin-1-ium chloride] | 480 nm | 622 |  |  | 
CCCCCCN(CCCCCC)c1ccc(/C=C/c2cc[n+](CCC(F)(F)C(F)(F)C(F)(F)C(F)(F)C(F)(F)C(F)(F)F)cc2)cc1.[I-] [CS0121, (E)-4-(4-(dihexylamino)styryl)-1-(3,3,4,4,5,5,6,6,7,7,8,8,8-tridecafluorooctyl)pyridin-1-iumiodide] | 480 nm | 620 |  |  | 
O=C(CCCCCCNC(=O)c1cnc(N(c2ccccc2)c2ccccc2)nc1)NO [ACY1215] |  |  |  | significant shift in melting temperature (apparent Tagg) | 
CCCCCCN(CCCCCC)c1ccc(/C=C/c2cc[n+](CCCC(=O)NCCOCCOCCOCCC(=O)OC(C)(C)C)cc2)cc1.[Br-] [CS0100, (E)-4-(4-(Dihexylamino)styryl)-1-(2,2-dimethyl-4,17-dioxo-3,7,10,13-tetraoxa-16-azaicosan-20-yl)pyridin-1-ium chloride] | 480 nm | 622 |  |  | 
C[S+]([O-])c1ccc(-c2nc(-c3ccncc3)c(-c3ccc(F)cc3)[nH]2)cc1 (stereo not shown) [SB203580] |  |  | did not result in a significant shift in apparent Tagg |  | did not
Cn1c(NC[C@@H](N)Cc2ccccc2)nc(-c2ccncc2)c(-c2ccc3ccccc3c2)c1=O [AMG548] |  |  | did not result in a significant shift in apparent Tagg |  | did not
CCCCCCN(CCCCCC)c1cccc2c(/C=C/c3cc[n+](CCCS(=O)(=O)[O-])cc3)cccc12 [CS0071] | not fluorescent |  |  |  | 
CCCCCCN(CCCCCC)c1ccc(/C=C/c2cccc[n+]2CCCS(=O)(=O)[O-])cc1 [CS0020] | 468 nm | 602 |  |  | 
